The values below are quoted from earlier work in patent US11174243B2, “Succinate forms and compositions of Bruton's tyrosine kinase inhibitors” (Sunesis Pharmaceuticals, Inc., priority 2016, dated 2021).

Read-outs that look alike come from different tables or passages of the source.

For the series the following is noted: mean, cited from earlier work.

For the molecule `C=CC(=O)N1CCC[C@@H](n2nc(-c3ccc(Oc4ccccc4)cc3)c3c(N)ncnc32)C1` [Ibrutinib], the Cmax (560 mg (single dose)) is 141 ng/mL.

In the case of `CC#CC(=O)N1CCC[C@H]1c1nc(-c2ccc(C(=O)Nc3ccccn3)cc2)c2c(N)nccn12` [Acalabrutinib], where the note is “100 mg BID (steady state)”, the AUC0-24 was 1850 ng·h/mL and the Cmax is 827 ng/mL.

The term Cmax denotes the maximum level reached in the sampled fluid or tissue.
